# Data reported in the RepoRT retention time repository.
# Assay: Agilent ZORBAX 300 SB-C18, 150 × 1 mm, 3.5 µm; A: water + 0.01% heptafluorobutyric acid; B: acetonitrile + 0.01% heptafluorobutyric acid; gradient (min/%B) 0/0 100/90
# Conditions: stereoisomer not certain
row,SMILES,LC retention time
1,O=C1NC(Cc2c[nH]c3ccccc23)C(=O)NC1Cc1c[nH]c2ccccc12 (stereo not drawn),9.58 min
2,Cc1ccc2cc(-c3ccncc3)[nH]c2c1,10.2 min
3,CC(C)(C)c1ccc(NC(=O)NCc2ccco2)cc1,14.5 min
4,CN(C)CCN(C)CCN(C)CCN(C)C,7.61 min
5,O=C(O)CCC(=O)Nc1ccc2c(c1)CCCC2,11.2 min
6,COc1cccc2ccc(C)nc12,7.77 min
7,O=C(NN=Cc1cc2ccccc2[nH]1)c1ccccc1,10.9 min
8,CCOC(=O)c1ccc(NC(=O)C(c2ccccc2)c2ccccc2)cc1,16.9 min
9,COc1ccc(NC(=O)c2ccc(N3C(=O)CCC3=O)cc2)cc1,10.3 min
10,NCC1CCNCC1,6.49 min
11,Cn1c2c(c(=O)n(C)c1=O)C1c3ccccc3OCC1C(C)(C)O2 (stereo not drawn),13.2 min
12,Cc1cc(C)c(NC(=O)c2ccncc2)c(C)c1,10.4 min
13,COc1ccc2cnn(-c3ccccc3)c(=O)c2c1OC,11.5 min
14,O=C(O)c1c2c(nc3ccccc13)CCCC2,5.96 min
15,S=C(Nc1ccccn1)NC1CCCCC1,10.7 min
16,OCCNC1CCCCC1,7.24 min
17,CCC(NC(C)C)C(O)c1ccc(O)c2[nH]c(=O)ccc12 (stereo not drawn),7.81 min
18,CN(C)CCOC(C)(c1ccccc1)c1ccccn1 (stereo not drawn),8.98 min
19,CCCCNC(=O)NCCCC,10.5 min
20,CNCCO,2.61 min
21,O=C1C=C(O)C(=O)C1c1ccccc1 (stereo not drawn),9.39 min
22,Nc1nc(N)nc(N)n1,4.25 min
23,c1ccc(CCN(Cc2ccncc2)Cc2ccccn2)cc1,8.96 min
24,CC(=O)c1c(-c2ccccc2)[nH]c2ccccc12,13 min
25,Cc1cnc2c(ccc3c(C)c(C)cnc32)c1C,9.85 min
26,COc1cc(N2C=C3N=C(c4ccccc4)NN3C=N2)cc(OC)c1OC,12.1 min

row,SMILES,LC retention time
1,Cc1ccc(N2C3=C(C(=O)CC(C)(C)C3)C(c3ccccc3)C3=C2c2ccccc2C3=O)cc1 (stereo not drawn),18.4 min
2,CN(C)C=CC(=O)c1ccc2ccccc2c1,12.2 min
3,CC(=O)Nc1ccc(Cc2ccncc2)cc1,7.75 min
4,NNC(=O)CCCO,2.37 min
5,CC1(C)SC2C(NC(=O)C(N)c3ccc(O)cc3)C(=O)N2C1C(=O)O (stereo not drawn),7.52 min
6,COc1ccc2c(c1O)-c1cccc3c1C(C2)N(C)CC3 (stereo not drawn),9.69 min
7,CN(C)C1CCNC1 (stereo not drawn),6.6 min
8,CC(=O)Oc1ccc(C(=O)N2CCc3ccccc32)cc1,13.2 min
9,Cc1nc2ccccc2nc1CSc1cccc2cccnc12,12.8 min
10,CC1NCCC2(O)CCCCC12 (stereo not drawn),7.09 min
11,Cc1ccc(N(C)C)cc1,8.12 min
12,Cc1cc(=O)[nH]c(N)n1,5.97 min
13,CCCCCC[N+](C)(C)C,8.47 min
14,CN1C(=O)CC(N2CCN(C(=O)CN3CCCC3)CC2)C1=O (stereo not drawn),7.12 min
15,Nc1ccc2c(c1)SSc1cc(N)ccc1-2,10.3 min
16,Cc1cccnc1CN1CCN(Cc2ncccc2C)CC1,7.69 min
17,Nc1ccc2c(c1)COc1ccccc1O2,10.5 min
18,Cc1ccc(C)n1-c1cccc(C(=O)O)c1,12.9 min
19,Cc1ccc(N2NC(C)(CC(C)C)NC2=S)cc1 (stereo not drawn),15.1 min
20,Cc1[nH]c2c(c1C)C(=O)CCC2,8.94 min
21,CCN(CC)CCOC(=O)C(c1ccccc1)C1CCCCC1 (stereo not drawn),13 min
22,CCOC(=O)c1ccc(N(CC)CC)cc1,12.5 min
23,C=CCC1(CC=C)CCCCN1,8.76 min
24,CCn1c2ccccc2c2cc(C=NNC(=O)c3ccc(C)cc3)ccc21,15.7 min
25,NC(=O)C1(N2CCCCC2)CCN(C(=O)CN2CCNCC2)CC1,7.28 min
26,CC=CC=CC(=O)Nc1ccc(C=CC(=O)c2ccccc2)cc1,15.7 min

row,SMILES,LC retention time
1,Cc1ccc(OCCOCn2c(C)cc(=O)[nH]c2=O)cc1,11 min
2,NC(=O)CCN1CCNCC1,6.16 min
3,CN1C(=O)NC(c2ccccc2)C2=C1CN(c1ccc(CC(=O)O)cc1)C2=O (stereo not drawn),9.56 min
4,CCNc1cc(C)ccc1O,7.6 min
5,CCCC(=O)C1CCNCC1,7.57 min
6,CN(C)CCCNCc1ccc2[nH]c3c(c2c1)CCCC3,8.71 min
7,O=C1CCCN1CP(=O)(O)CCc1ccccc1,7.26 min
8,CN(C)C(=O)C1OC(C)(C)OC1C(=O)N(C)C (stereo not drawn),8.25 min
9,O=C(O)c1ccc2nccnc2c1,7.67 min
10,NCCCCCC(=O)O,6.81 min
11,Cc1ccc(C=C2CN(C)CC(=Cc3ccc(C)cc3)C2=O)cc1,12.3 min
12,CN1CCN(C(=O)c2nn(C)c(=O)c3ccccc23)CC1,7.52 min
13,CC(=Nc1ccc(N=Nc2ccccc2)cc1)N(C)C,10.9 min
14,CNC(=S)Nc1c(C)cccc1C,9.89 min
15,Nc1cc(C(=O)N2CCCCC2)cc(C(=O)N2CCCCC2)c1,9.88 min
16,CCCCCCCCCCN(C)C,12 min
17,CC(=O)Nc1c(C)cc(C)cc1N,7.92 min
18,CCCCOC(=O)c1ccc(NC(=O)CCCC)cc1,16.3 min
19,CNCCC=C1c2ccccc2CCc2ccccc21,11.7 min
20,O=C(O)CCCNC(=O)CCCCCCCC(=O)NCCCC(=O)O,7.58 min
21,Cc1ccc(C(=O)O)c(=O)[nH]1,6.43 min
22,Cn1c(=O)c(=O)n(CC(=O)c2ccc3c(c2)CCCC3)c2ccccc21,14.1 min
23,Cn1c(=O)cc(O)c2ccccc21,9.12 min
24,O=C(Cc1cccc2ccccc12)N1CCN(Cc2ccccc2)CC1,10.4 min
25,O=S(=O)(O)CCCN1CCOCC1,1.67 min
26,CCCCN,6.72 min

row,SMILES,LC retention time
1,O=C1C=CC(=O)N1C1CCCCC1,9.58 min
2,Cc1cccc(Oc2cc(C)nc3ccc(C)cc23)c1,11.8 min
3,C1CNCCN1,6.38 min
4,c1ccc2c(c1)CCCN2,7.61 min
5,Cc1ccc(-c2nn(CC(=O)Nc3cccnc3)c(=O)c3ccccc23)cc1,11.3 min
6,CCN(CC)C(=O)c1cc(C)nc2c1c(=O)n(CC(=O)Nc1ccccc1)c(=O)n2C,12 min
7,COc1ccc2c(=O)cc(-c3ccccc3)oc2c1OC,13.7 min
8,CN(C)CCNC1=CC(=O)CC(C)(C)C1,7.29 min
9,CNC(C)C(=O)c1ccccc1 (stereo not drawn),8.4 min
10,Nn1cnn(Cc2ccccc2)c1=S,10.3 min
11,Cn1c(C(=O)N2CCN(C(c3ccccc3)c3ccccc3)CC2)cc(=O)n(C)c1=O,11.7 min
12,COc1cc(C(=O)Nc2ccc(OCC(N)=O)cc2)cc(OC)c1OC,9.54 min
13,CCn1c(-c2ccccc2)csc1=Nc1ccc(C)c(C)c1,12.5 min
14,CC(C)(C)NCC(O)COc1cccc2c1CC(O)C(O)C2 (stereo not drawn),8.31 min
15,c1ccc2ncccc2c1,7.27 min
16,CCCCCCCCN(CCCCCCCC)CCCCCCCC,19.5 min
17,Cc1ccc(N2C(=O)CC(N(CCc3ccccc3)C(=S)Nc3cccc(C)c3)C2=O)cc1 (stereo not drawn),17.6 min
18,CC(=NN=C(C)c1cccc(N)c1)c1cccc(N)c1,8.74 min
19,Cc1ccc2[nH]c(=O)c(=O)[nH]c2c1C,8.13 min
20,Cc1cccc(N)c1,8.01 min
21,Nc1ccccc1C(=O)N1CCc2ccccc21,12.4 min
22,CCN(CC)CC,7.12 min
23,O=C(c1ccc(CN2CCc3ccccc3C2)cc1)N(Cc1ccccc1)Cc1ccccc1,12.5 min
24,CCCCOc1cc(C(=O)NCCN(CC)CC)c2ccccc2n1,11.8 min
25,CCc1cccc2ccn(Cc3ccccc3)c12,18.4 min
26,NC(CO)(CO)CO,2.86 min

row,SMILES,LC retention time
1,O=C(O)CC(NCc1ccccc1)C(=O)O (stereo not drawn),6.19 min
2,CC(=O)N(C)c1ccc(O)cc1,7.68 min
3,NCCNCCNCCN,7.5 min
4,O=C1OC(c2c[nH]c3ccccc23)c2ccccc21 (stereo not drawn),12.4 min
5,O=c1[nH]c2ccccc2n1CCOc1ccccc1,12.2 min
6,NC(=O)CNC(=O)c1ccc2ccccc2n1,8.66 min
7,CC(=O)Nc1ccc(CC(C(=O)O)c2ccccc2)cc1 (stereo not drawn),10.6 min
8,NC(=S)CCc1ccccn1,6.55 min
9,Cc1cc(C(=O)O)c(C)n1CCc1c[nH]c2ccccc12,12.5 min
10,CC(c1ccccc1)C1Nc2ccccc2C(=O)N1c1ccccc1 (stereo not drawn),15 min
11,CC(=O)NNC(=O)c1ccncc1,3.54 min
12,Nc1ccn(CC(O)CO)c(=O)n1 (stereo not drawn),4.4 min
13,CC1CCC(c2cn(C)c3ccccc23)C(=O)C1 (stereo not drawn),15.7 min
14,CC(C)N(C)C,5.87 min
15,Cc1nn(CC(=O)NC2CC(C)(C)NC(C)(C)C2)c(=O)c2ccccc12,8.35 min
16,CC(C)CN,6.34 min
17,O=C1NCCN1C(=O)c1ccco1,6.67 min
18,NC(=S)NN=Cc1c2ccccc2cc2ccccc12,13.7 min
19,COc1ccc(NC(=O)c2cc3ccccc3oc2=N)cc1,10.1 min
20,C[N+](C)(C)CCOC(=O)c1ccccc1,8.36 min
21,CCC(C)N1CNc2c(c(=O)[nH]c(=O)n2-c2ccc(C)c(C)c2)C1 (stereo not drawn),8.26 min
22,CCN1CCCCC1,6.52 min
23,O=C1NCCCC1C(=O)N1CCN(C(=O)c2ccco2)CC1 (stereo not drawn),7.34 min
24,Cc1ccc(C(=O)C=Cc2sccc2C)cc1,17.4 min
